Assay results: the supplement of paper PMC11061612

Legend:
Test in all cases: combination Emax (second highest fraction inhibited in the dose matrix, 72 h); higher = more inhibition; extreme values may be limits of the assay
[1] = system: Daudi (Burkitt's Lymphoma)
How it was run: (§1)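 Cell lines grown in DMEM/F12 or RPMI with 10% FBS were plated in 1536-well plates and held 24 hours at 37°C, 5% CO2 before 72 hours of exposure to two-drug dose matrices, with DMSO typically at 0.2%. CellTiter-Glo 2.0 luminescence gave viability, which was converted to inhibition. Vehicle wells were set to 0 and blank wells to 1. Combination Emax is the second-highest inhibition in the matrix, and Bliss excess is the observed combination effect minus the expected EA + EB − EA·EB, where EA and EB are the single-agent effects.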

[2] = system: TOV-21G (Ovarian Carcinoma)
How it was run: as §1

[3] = system: TK (B-Cell Non-Hodgkin's Lymphoma)
How it was run: as §1

[4] = system: NCI-H2023 (Non-Small Cell Lung Carcinoma)
How it was run: as §1

SK-N-DZ (Neuroblastoma) = system: SK-N-DZ (Neuroblastoma)
How it was run: as §1

[5] = system: IGROV-1 (Ovarian Carcinoma)
How it was run: as §1

[6] = system: NTERA-2-cl-D1 (Other Solid Carcinomas)
How it was run: as §1

[7] = system: L-363 (Plasma Cell Myeloma)
How it was run: as §1

NCI-H2452 (Mesothelioma) = system: NCI-H2452 (Mesothelioma)
How it was run: as §1

[8] = system: SCC90 (Head and Neck Carcinoma)
How it was run: as §1

DK-MG (Glioblastoma) = system: DK-MG (Glioblastoma)
How it was run: as §1

[9] = system: RS4-11 (B-Lymphoblastic Leukemia)
How it was run: as §1

[10] = system: CAL-85-1 (Breast Carcinoma)
How it was run: as §1

[11] = system: OVKATE (Ovarian Carcinoma)
How it was run: as §1

[12] = system: JURL-MK1 (Chronic Myelogenous Leukemia)
How it was run: as §1

[13] = system: NCI-H1944 (Lung Adenocarcinoma)
How it was run: as §1

SK-MEL-24 (Melanoma) = system: SK-MEL-24 (Melanoma)
How it was run: as §1

[14] = system: JJN-3 (Plasma Cell Myeloma)
How it was run: as §1

[15] = system: KNS-62 (Squamous Cell Lung Carcinoma)
How it was run: as §1

Structure (SMILES)	combination Emax [1]	combination Emax [2]	combination Emax [3]	combination Emax [4]	combination Emax (SK-N-DZ (Neuroblastoma))	combination Emax [5]	combination Emax [6]	combination Emax [7]	combination Emax (NCI-H2452 (Mesothelioma))	combination Emax [8]	combination Emax (DK-MG (Glioblastoma))	combination Emax [9]	combination Emax [10]	combination Emax [11]	combination Emax [12]	combination Emax [13]	combination Emax (SK-MEL-24 (Melanoma))	combination Emax [14]	combination Emax [15]
CN(CCO)CC[C@H](CSc1ccccc1)Nc1ccc(S(=O)(=O)NC(=O)c2ccc(N3CCC([C@@H](O)c4ccccc4-c4ccc(Cl)cc4)CC3)cc2)cc1S(=O)(=O)C(F)(F)F [AZD4320] + C1CN(CCC1(C(=O)N[C@@H](CCO)C2=CC=C(C=C2)Cl)N)C3=NC=NC4=C3C=CN4 [Capivasertib] (first compound max 1 µM, 7x7, partner max 3 µM)	0.16	0.688	0.97	0.264	0.705	0.767	0.409	0.376	0.202	0.836	0.255	1	0.264	0.24	0.87	0.373	0.452	0.383	0.232
Cc1c2c(nn1C)CSCc1cc(n(C)n1)CSc1cc(c3ccccc3c1)OCCCc1c(C(=O)O)n(C)c3c-2c(Cl)ccc13 [AZD5991] + CN(C)CCCOc1ccc(-c2ccc3ncc4c(c3c2)n(C2CCOCC2)c(=O)n4C)cn1 [AZD0156] (first compound max 1 µM, 7x7, partner max 1 µM)	0.288	0.161	0.313	0.426	0.265	0.606	0.589	1	0.372	0.904	0.754	0.565	0.206	0.247	0.734	0.259	0.232	1	0.174
CCN(CCO)CCCOc1ccc2c(Nc3cc(CC(=O)Nc4cccc(F)c4)[nH]n3)ncnc2c1 [AZD2811] + O=C(c1cc(Cc2n[nH]c(=O)c3ccccc23)ccc1F)N1CCN(C(=O)C2CC2)CC1 [Olaparib] (first compound max 1 µM, 7x7, partner max 10 µM)	0.48	0.288	0.206	0.415	0.405	0.303	0.65	0.184	0.423	0.303	0.258	0.987	0.0869	0.239	0.688	0.243	0.225	0.336	0.145
CCN(CCO)CCCOc1ccc2c(Nc3cc(CC(=O)Nc4cccc(F)c4)[nH]n3)ncnc2c1 [AZD2811] + C[C@@H]1COCCN1C2=NC(=NC(=C2)C3(CC3)[S@](=N)(=O)C)C4=C5C=CNC5=NC=C4 [AZD6738] (first compound max 1 µM, 7x7, partner max 10 µM)	0.851	0.56	0.901	0.818	0.96	0.646	0.784	0.807	0.431	0.353	0.308	1	0.481	0.344	1	0.733	0.428	0.566	0.417
Cc1c2c(nn1C)CSCc1cc(n(C)n1)CSc1cc(c3ccccc3c1)OCCCc1c(C(=O)O)n(C)c3c-2c(Cl)ccc13 [AZD5991] + Cn1cnc2c(F)c(Nc3ccc(Br)cc3Cl)c(C(=O)NOCCO)cc21 [Selumetinib] (first compound max 1 µM, 7x7, partner max 3 µM)	0.394	0.335	0.114	0.294	0.252	0.734	0.562	1	0.32	0.99	0.689	0.497	0.584	0.265	0.952	0.304	0.705	1	0.339
CN(CCO)CC[C@H](CSc1ccccc1)Nc1ccc(S(=O)(=O)NC(=O)c2ccc(N3CCC([C@@H](O)c4ccccc4-c4ccc(Cl)cc4)CC3)cc2)cc1S(=O)(=O)C(F)(F)F [AZD4320] + CN(C)CCCOc1ccc(-c2ccc3ncc4c(c3c2)n(C2CCOCC2)c(=O)n4C)cn1 [AZD0156] (first compound max 1 µM, 7x7, partner max 1 µM)	0.119	0.209	0.998	0.22	0.697	0.611	0.416	0.263	0.246	0.496	0.192	1	0.29	0.29	0.825	0.322	0.252	0.445	0.125
CN(CCO)CC[C@H](CSc1ccccc1)Nc1ccc(S(=O)(=O)NC(=O)c2ccc(N3CCC([C@@H](O)c4ccccc4-c4ccc(Cl)cc4)CC3)cc2)cc1S(=O)(=O)C(F)(F)F [AZD4320] + C=CCn1c(=O)c2cnc(Nc3ccc(N4CCN(C)CC4)cc3)nc2n1-c1cccc(C(C)(C)O)n1 [AZD1775] (first compound max 1 µM, partner max 1 µM)	0.336	0.721	1	0.623	1	0.894	0.775	1	0.737	0.85	0.283	1	0.439	0.528	1	0.813	0.582	0.662	0.363
CC1(C)CCC(CN2CCN(c3ccc(C(=O)NS(=O)(=O)c4ccc(NCC5CCOCC5)c([N+](=O)[O-])c4)c(Oc4cnc5[nH]ccc5c4)c3)CC2)=C(c2ccc(Cl)cc2)C1 [Venetoclax] + CN(C)CCCOc1ccc(-c2ccc3ncc4c(c3c2)n(C2CCOCC2)c(=O)n4C)cn1 [AZD0156] (first compound max 1 µM, 7x7, partner max 1 µM)	0.054	0.18	0.969	0.338	0.256	0.535	0.755	0.867	0.277	0.324	0.292	1	0.136	0.208	0.262	0.228	0.281	0.235	0.262
CC1(C)CCC(CN2CCN(c3ccc(C(=O)NS(=O)(=O)c4ccc(NCC5CCOCC5)c([N+](=O)[O-])c4)c(Oc4cnc5[nH]ccc5c4)c3)CC2)=C(c2ccc(Cl)cc2)C1 [Venetoclax] + C1CN(CCC1(C(=O)N[C@@H](CCO)C2=CC=C(C=C2)Cl)N)C3=NC=NC4=C3C=CN4 [Capivasertib] (first compound max 1 µM, 7x7, partner max 3 µM)	0.205	0.646	0.996	0.424	0.307	0.738	0.692	0.867	0.272	0.813	0.301	1	0.161	0.199	0.291	0.249	0.361	0.305	0.364
CC1(C)CCC(CN2CCN(c3ccc(C(=O)NS(=O)(=O)c4ccc(NCC5CCOCC5)c([N+](=O)[O-])c4)c(Oc4cnc5[nH]ccc5c4)c3)CC2)=C(c2ccc(Cl)cc2)C1 [Venetoclax] + Cc1cc2ncnn2cc1Nc1ncc2c(n1)n(C1CCOCC1)c(=O)n2C [AZD7648] (first compound max 1 µM, 7x7, partner max 10 µM)	0.247	0.195	0.967	0.392	0.399	0.539	0.743	0.867	0.259	0.351	0.265	1	0.284	0.28	0.356	0.353	0.248	0.327	0.219
CN(CCO)CC[C@H](CSc1ccccc1)Nc1ccc(S(=O)(=O)NC(=O)c2ccc(N3CCC([C@@H](O)c4ccccc4-c4ccc(Cl)cc4)CC3)cc2)cc1S(=O)(=O)C(F)(F)F [AZD4320] + Cn1cnc2c(F)c(Nc3ccc(Br)cc3Cl)c(C(=O)NOCCO)cc21 [Selumetinib] (first compound max 1 µM, 7x7, partner max 3 µM)	0.65	0.503	0.987	0.268	0.827	0.612	0.987	0.212	0.346	0.881	0.336	1	0.683	0.501	0.999	0.702	0.761	0.731	0.399
CC1(C)CCC(CN2CCN(c3ccc(C(=O)NS(=O)(=O)c4ccc(NCC5CCOCC5)c([N+](=O)[O-])c4)c(Oc4cnc5[nH]ccc5c4)c3)CC2)=C(c2ccc(Cl)cc2)C1 [Venetoclax] + COc1cc(Nc2ncc3c(n2)-c2ccc(Cl)cc2C(c2c(F)cccc2OC)=NC3)ccc1C(=O)O [Alisertib] (first compound max 1 µM, 7x7, partner max 10 µM)	0.787	0.682	1	0.477	0.888	0.789	0.954	0.772	0.573	0.687	0.443	1	0.438	0.311	0.964	0.544	0.401	0.939	0.283
